Measurements as given in US8642631B2, “Methods of treating mammals with eustachian tube dysfunctions” (University of Melbourne, priority 2008, dated 2014).

System: Eustachian tube
Assay: Eustachian tube function test (middle ear pressure equalisation on reflex swallowing) in anaesthetised rats
Type: in vivo, Sprague Dawley rats
Procedure: Animal experiments were conducted on female and male adult Sprague Dawley rats weighing 250-450 g. Up to five animals were used in each section of the experiment. In this figure, a small tube is glued into the tympanic bulla of an anaesthetised rat (A). The tube is connected to a syringe pump (B), a pressure transducer (C) and data recorder (D) and to a manometer (E). The syringe pump is used to increase pressure within the middle ear. […] From this it can be seen that intra-bulla pressure was increased from ambient (Amb) to around 130 mm of water. […] The overall pressure drop is a measure of the efficiency of pressure equalisation via the Eustachian tube. Each experiment consisted of a series of active Eustachian tube function tests preceded by a passive run. In the passive run pressure was increased in the bulla by a continuous air flow (30 ml/min) until the Eustachian tube opened spontaneously. While the air continued to flow, the pressure in the middle ear decreased until the Eustachian tube closed. Now the pressure in the middle ear, due to continued air flow, could build up again until the Eustachian tube opened a second time. This enabled the measurement of the passive opening and closing pressures of the Eustachian tube. The active runs consisted of three preceding control runs (C1-C3) followed by three runs assessing the effect of intervention S1-S6. At the start of each active run the pressure in the bulla was raised to 75% of the passive opening pressure of the Eustachian tube. At this point the air flow into the bulla was stopped. […] This caused reflex swallowing, which was accompanied by a momentary opening of the Eustachian tube, and reduced middle ear pressure step by step. In each active run 10 consecutive swallows were recorded. […]

CNCCc1ccccn1 [betahistine, N-methyl-2-pyridineethanaamine]
increase in efficiency of Eustachian tube pressure equalisation (anaesthetised rats, betahistine applied within the tympanic bulla and flushed through the Eustachian tube, FIG. 4): around 30%
effect on ET function (anaesthetised rats, systemic (intraperitoneal) injection, cumulative doses 1, 5 and 10 μl, total 16 μl, FIG. 5): no significant effect
increase in efficiency of pressure equalisation through the Eustachian tube (healthy anaesthetised rats, betahistine diHCl 5 μl of 8 mg/mL (Vasomotal) applied to the nasopharynx, normalized to control measurement C3, FIG. 3): 31%
